Laboratory results: PubChem BioAssay AID179 (DTP/NCI, 2004)
“And” between values parts separate entries of the source, which are not always exact repeats. Equal entries are not always repeated. The source made the active and inactive calls.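 Rule for the calls: active = compounds giving half or more protection of infected cells from virus-caused growth loss, again on retest; inactive = the rest.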 Where a SMILES comes first, the peptide text is derived from it. The star is where a group is joined. Boc = CC(C)(C)OC(=O)*; OBn = c1ccc(CO*)cc1

Test system: CEM cells HIV-1 protection, formazan growth assay
Experiment: NCI AIDS Antiviral Assay
Details: for IC50: measured here: growth of uninfected CEM cells
Procedure, shortened: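 Human CEM cells, uninfected and HIV-1-infected, received five drug concentrations, and growth was read by soluble formazan assay. Compounds giving at least 50% protection were retested; reproducible 100% protection defined confirmed active.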

Row | Compound | EC50 [µM] | IC50 | outcome
1 | O=[N+]([O-])[O-].O=[N+]([O-])[O-].[Au].[Au].c1ccc([P-]c2ccccc2)cc1.c1ccc([P-]c2ccccc2)cc1 | > 4.27 | > 4.27 µM | 
2 | O=S(=O)(O)SCCNCC(O)C(O)CNCCSS(=O)(=O)O (stereo not drawn) | > 617 | 120 µM | 
3 | Cc1nc2ccccc2c(=O)n1-c1nc2ccccc2s1 | > 200 | 31.6 µM | 
4 | C=C(C)C(C(=O)OC(c1ccccc1)c1ccccc1)N1C(=O)C(NC(=O)COc2ccccc2)C1SSC(C)(C)C (stereo not drawn) | > 200 | 72.4 µM | 
5 | O=C(N/C(=C\c1ccc([N+](=O)[O-])cc1)c1nc2[nH]c(=S)[nH]c(=O)c2[nH]1)c1ccccc1 |  |  | inactive
6 | CC12OOC(c3ccccc31)c1c2ccc2ccccc12 (stereo not drawn) |  |  | inactive
7 | COC(=O)C1c2c(C)cc3n2C(C=CC3)C1C(=O)OC (stereo not drawn) | > 324 | 115 µM | 
8 | Cc1cc(=O)[nH]c(NNC(C#N)c2ccc([N+](=O)[O-])cc2)n1 (stereo not drawn) | > 63.1 | > 63.1 µM | 
9 | C=CC[P+](c1ccccc1)(c1ccccc1)c1ccccc1 | > 20 | 0.562 µM and 0.427 µM | 
10 | c1cc[c]([Sn]([O]c2cccc3cccnc23)([c]2ccccc2)[c]2ccccc2)cc1 |  |  | inactive
11 | Cc1cc(N(CCC#N)CCC#N)ccc1/C=C\C(=O)Nc1ccccc1 | > 692 | > 692 µM | 
12 | CN(C)CC(=O)C1C(=O)N(C)c2ccccc21 (stereo not drawn) | > 200 | > 200 µM | 
13 | COC1=C(CC(C)=O)C(=O)c2c(O)c(CO)cc(O)c2C1=O |  |  | inactive
14 | O=C1C=CC(=O)c2c1ccc1c3ccccc3n(-c3ccccc3)c21 | > 22.4 | 1.07 µM | 
15 | Cc1c(C(=O)C/C(=N/NC(=O)c2ccccc2)C(=O)Nc2ccc(Cl)cc2)[n+](=O)c2ccccc2n1[O-] | > 34.7 | 20.4 µM | 
16 | Cc1cc(S(=O)(=O)Nc2nncn2-c2ccc(Cl)cc2)c(S)cc1Cl |  |  | inactive
17 | CCC(=O)N1NC(=O)C(CC)(CC)C1=O | > 200 | > 200 µM | 
18 | CC(=O)c1cccn1/C=C(\OC(=O)OC(C)(C)C)c1ccc[nH]1 | 155 | 162 µM | 
19 | CN1CC2CC3=C(CCC45CC6C(C=C34)C63CCC4(CC67CCC8C9(C)CCCC8%10C(C6CC4CC7%10)N(C)C9)OC53)C(C)(C2)C1 (stereo not drawn) |  |  | inactive
20 | CC1CCCC(C)[N+]1=C(Nc1cccc(Cl)c1)c1ccccc1 (stereo not drawn) | > 200 | 105 µM | 
21 | COC(=O)C1=Nc2c(C)nn(-c3ccccc3)c2N=C(c2ccc(C)cc2)C1 | > 200 | > 200 µM | 
22 | CNc1ccc(C=C2c3ccccc3-c3ccccc32)cc1 | > 13.2 | 4.79 µM | 

Row | Compound | EC50 [µM] | IC50 | outcome
23 | C/C=C1\CN2CCc3c([nH]c4ccccc34)C2CC1CC(=O)N(C)C (stereo not drawn) | > 200 | > 200 µM | 
24 | O=C1CCC(=O)N1n1c(Cc2ccc(Cl)cc2)n[nH]c1=O | > 200 | > 200 µM | 
25 | O=C(/C=C/c1ccccc1)C[C@@H](O)C[C@@H]1CC=CC(=O)O1 | > 200 | 3.16 µM | 
26 | N#Cc1ccc(Cc2ccccn2)cc1Cl |  |  | inactive
27 | Cc1cccc2c(=O)c3cccc(CC(=O)O)c3oc12 | > 200 | > 200 µM | 
28 | CCCc1cc(=O)oc2c3c(c4c(c12)OC(C)(C)C(O)C4=O)O[C@@H](C)[C@H](C)[C@@H]3O (stereo partly drawn) | > 200 | 85.1 µM | 
29 | CN(C)c1ccc(/C=C/c2cc[n+]3cc(-c4ccccc4)sc3n2)cc1 | > 1.51 | 0.324 µM | 
30 | C#CCCCC(=C)C[C@@H]1OC(=O)[C@H](C)[C@@H]1O | > 200 | > 200 µM | 
31 | CCCCN(CCCC)C(=O)COc1cc2c(O)c3c(O)c(C)c4c(c13)C(=O)C(C)(O/C=C/C(OC)C(C)C(OC(C)=O)C(C)C(O)C(C)C(O)C(C)/C=C/C=C(\C)C(=O)N2)O4 (stereo not drawn) | > 91.2 | 11 µM | 
32 | N#Cc1cccc(C(Br)S(=O)(=O)c2ccccc2)c1 (stereo not drawn) | > 77.6 | 72.4 µM | 
33 | CCC[CH2][Sn]([CH2]CCC)([O]C(=O)C1CCC(=O)N1)[O]C(=O)C1CCC(=O)N1 (stereo not drawn) | > 38.9 | 0.0912 µM | 
34 | Cc1cc(OC(=O)c2c(C)cc(OC(=O)c3c(C)cc(O)cc3O)cc2O)cc(O)c1C(=O)O | > 77.6 | > 77.6 µM | 
35 | CC(C)NCCNC(=O)c1ccccc1Nc1c(Cl)cccc1Cl | > 200 | 14.8 µM | 
36 | CSc1c(C#N)c2n(c3ccccc13)c1ccccc1[n+]2C | > 100 | 6.76 µM | 
37 | N=C(N)SCc1ccc2nsnc2c1 | > 309 | 52.5 µM | 
38 | CC(=O)c1ccc([Se][Se]c2ccc(C(C)=O)cc2)cc1 | > 18.2 | 3.72 µM | 
39 | Cc1nn(C(=O)c2c(O)cccc2Br)c(C)c1N=Nc1ccccc1 |  |  | inactive
40 | C=C1[C@H]2C(=O)[C@H]3[C@@H]4N(C)C5CC3([C@@H]1OC(C)=O)[C@@H](C2OC(C)=O)C41[C@H](OC(C)=O)C(OC(=O)c2ccccc2)C[C@@](C)(C=O)[C@@H]51 (stereo partly drawn) |  |  | inactive
41 | O=C1/C(=C/c2ccccc2)CN(C(=O)CCN2CCOCC2)C/C1=C\c1ccccc1 | > 79.4 | 0.525 µM | 
42 | Cn1c(=N)n[n+]([O-])c2ccccc21 | > 200 | 3.47 µM and 4.07 µM | 
43 | O=C1/C(=C/c2ccc(Br)s2)NC(=S)N1c1ccccc1 | > 200 | 95.5 µM | 
44 | c1ccc(-c2c(-c3ccccc3)c2=NN(c2ccccc2)c2ccccc2)cc1 | > 200 | 11 µM | 

Row | Compound | EC50 [µM] | IC50 | outcome
45 | O=C(OCn1ncc2ccc([N+](=O)[O-])cc21)c1ccc(Cl)c(Cl)c1 | > 200 | 129 µM | 
46 | CC(=O)N/N=C1\NN(C(C)=O)C2(S1)C(=O)Nc1ccccc12 (stereo not drawn) | > 200 | > 200 µM | 
47 | Cc1cn(C2CC(O[Si](C)(C)C(C)(C)C)C(CN(O)C(N)=O)O2)c(=O)[nH]c1=O (stereo not drawn) | > 200 | > 200 µM | 
48 | CCOP(=S)(N/N=C1\CC2CCC1C2)OCC (stereo not drawn) | > 200 | > 200 µM | 
49 | Cn1cnc(N)c1S(N)(=O)=O | > 1410 | > 1410 µM | 
50 | COc1ccc(N2C(=O)C3c4[nH]c5ccccc5c4C4CCC(C(C)(C)C)CC4C3C2=O)c(C)c1 (stereo not drawn) | > 200 | > 200 µM | 
51 | CC1(C)O[C@@H]2[C@H](O1)C(=O)O[C@@H]2CO | > 200 | > 200 µM | 
52 | O=C1c2cccc3cccc(c23)C(=O)N1CCCN(CCO)CCO | > 200 | 12.3 µM | 
53 | COC(=O)C1CCC(=O)N1CN(C(C)=O)c1cc(OC)ccc1OC (stereo not drawn) | > 200 | > 200 µM | 
54 | Cc1cn(CC2COC(CO)O2)c(=O)[nH]c1=O (stereo not drawn) | > 1020 | > 1020 µM | 
55 | Clc1cc2n[se]nc2cc1Cl |  |  | inactive
56 | Cn1c(C(=O)c2cc3ccccc3n2C)cc2ccccc21 | > 18.2 | > 18.2 µM | 
57 | CCC1NC2CC3(C(=O)N(OC)c4ccccc43)C3CC1C2CO3 (stereo not drawn) | > 269 | > 269 µM | 
58 | COc1cccc(C=C2C(=O)c3ccccc3C2=O)c1 |  |  | inactive
59 | Cc1cc(-c2cccs2)oc(=O)c1NC(=O)c1cnccn1 | > 200 | > 200 µM | 
60 | CCCCC(=O)N1SC(NC(=O)OC)=Nc2ccccc21 | > 309 | 6.76 µM | 
61 | Cc1ccc2c(c1-c1ccccc1)C(=O)OC2 |  |  | inactive
62 | COC12c3ccccc3-c3ccccc3C1[C@@H](C(=O)O)[C@H]2C(=O)O (stereo partly drawn) | > 776 | > 776 µM | 
63 | COc1nc2c(nc(N)n2C2OC(CO)C(O)C(O)C2O)c(=O)n1C (stereo not drawn) |  |  | inactive
64 | CC(C)CC(NC(=O)OC(C)(C)C)C(=O)N1CCCC1C(=O)OCc1ccccc1 (stereo not drawn) (Boc-Leu-Pro-OBn; configuration not given here) | > 200 | 52.5 µM | 
65 | CN(O)C(=O)c1cccc(Cl)c1 | > 200 | 112 µM | 
66 | CN(NC(=O)/C(=C/C=C/c1ccccc1)NC(=O)c1ccccc1)c1cnn(-c2ccccc2)c(=O)c1Cl | > 200 | 3.24 µM | 

Row | Compound | EC50 [µM] | IC50 | outcome
67 | COC1OC(C)C(NC(=O)OCC(Cl)(Cl)Cl)C2OC(C)(C)OC12 (stereo not drawn) | > 331 | > 331 µM | 
68 | CC(=O)Nc1ccc(-c2nnc(SCC(=O)Nc3cccc(C)c3)o2)cc1 | > 67.6 | 11.7 µM | 
69 | O=C(SCc1c(O)c2ccccc2oc1=O)c1ccccc1 | > 200 | 67.6 µM | 
70 | OC(C#CCN1CCCC1)(c1ccccc1)c1ccccc1Cl.[C-]#[O+].[C-]#[O+].[C-]#[O+].[C-]#[O+].[C-]#[O+].[C-]#[O+].[Co].[Co] (stereo not drawn) | > 200 | 5.25 µM | 
71 | Cc1cc(O)c(/C=N/C(=S)Nc2cccc(C)c2C)c(=O)o1 |  |  | inactive
72 | O=C1C(Cl)C(c2ccccc2O)N1n1cnc2ccccc2c1=O (stereo not drawn) | > 14.5 | > 14.5 µM | 
73 | Cc1nc(C)c(N2CCN(S(=O)(=O)N(Cc3ccccc3)Cc3ccccc3)CC2)c(=O)[nH]1 | > 200 | > 200 µM | 
74 | CN(CCc1ccccn1)c1nc(=[N+](C)C)ss1 |  |  | inactive
75 | Cn1c(=O)c2c3ccccc3n(C)c2n(C)c1=O | > 200 | > 200 µM | 
76 | O=c1c2ccccc2nc(N/N=C/c2ccc(Cl)cc2)n1-c1ccccc1 | > 200 | > 200 µM | 
77 | COc1ccc(-c2oc3cc(-c4cc5oc(-c6ccc(OC)cc6)c(-c6ccc(OC)cc6)c5cc4OC)c(OC)cc3c2-c2ccc(OC)cc2)cc1 | > 200 | > 200 µM | 
78 | CC(C)COC(=O)CS(=O)(=O)O | > 200 | > 200 µM | 
79 | CC(=O)NC(Cc1cnc[nH]1)C(=O)N1CCCC1C(N)=O (stereo not drawn) | > 200 | > 200 µM | 
80 | FC(F)(F)c1nc(-c2ccccc2)oc1Sc1oc(-c2ccccc2)nc1C(F)(F)F |  |  | inactive
81 | CCn1c(SCC(=O)N/N=C2\SCC(=O)N2c2ccc(C)cc2)nc2ccccc2c1=O | > 200 | 66.1 µM | 
82 | CN(C)C(N)=NC#N | > 794 | > 794 µM | 
83 | CC(=O)OC(OC(C)=O)c1ccc2ccc3cccc4ccc1c2c34 | > 200 | 34.7 µM | 
84 | CCOC(=O)Nc1[nH]cc(-c2ccccc2)c1C#N | > 200 | > 200 µM | 
85 | CCOC(=O)N1CC2OC(n3cc(C)c(=O)[nH]c3=O)CC2O1 (stereo not drawn) | > 200 | > 200 µM | 
86 | O=[As](O)(O)c1cc(N=Nc2ccc(-c3ccc(N=Nc4cc([As](=O)(O)O)c(O)cc4O)cc3)cc2)c(O)cc1O | 6.61 | 7.76 µM | 
87 | C/C(O)=C(\C=N\C(N)=S)C(=O)Nc1ccccc1 | > 200 | > 200 µM | 
